Experimental findings from patent US11667632B2, “2-(1H-indazol-3-yl)-3H-imidazo[4,5-C]pyridines and their anti-inflammatory uses thereof” (BioSplice Therapeutics, Inc., priority 2015, dated 2023) are described below.

Holding throughout (assay type): cell-based
One assay relates to IL-6. The assay is described as follows: Inhibition of IL-6 in LPS-stimulated human monocyte cells (THP-1), HTRF. The note with it: Homo sapiens; THP-1 cells, LPS 500 ng/mL, IL-6 by HTRF. Here is the method: Human Monocyte Cell Culture: A human monocyte cell line (THP-1 cells; Catalog #TIB-202, ATCC, Manassas, Va.) was cultured in Roswell Park Memorial Institute (RPMI) 1640 Medium (Catalog #21870-100, Buffalo, N.Y.) with 1% L-glutamine, 1% HEPES, 1% sodium pyruvate, 2% sodium bicarbonate supplemented with 100 units/mL penicillin, 50 μg/mL streptomycin, 2-mercaptoethanol (0.05 mM) [basal medium] and 10% fetal bovine serum (Catalog #16140089, Life Technologies, Carlsbad, Calif.) at 37° C. and 5% CO2.
Compound Screening: THP-1 cells were cultured in basal media with 1% FBS for 24 hours before the start of the assay. Each compound of Formula (I) was dissolved in DMSO as a 10 mM stock and used to prepare compound source plates. Serial dilution (1:3, 10-point dose-response curves starting from 10 μM) and compound transfer was performed using the ECHO 550 (Labcyte, Sunnyvale, Calif.) into 384-well white low volume assay plates (Greiner Bio-One) with appropriate DMSO backfill for a final DMSO concentration of 0.1%. THP-1 cells were plated at 5000 cells/well in the 384-well plates and incubated at 37° C. for 2 h. 500 ng/mL of LPS was added after 2 hours and cells were incubated for another 22 hours at 37° C. Plates were spun in a centrifuge for 1 minute at 10,000 rpm and a mixture of anti-IL-6 XL665, and anti-IL-6 Cryptate diluted in reconstitution buffer (Cisbio Inc.) was added to each well. Following incubation for 3 hrs at room temperature, homogeneous time-resolved fluorescence (HTRF) was measured using the Envision (Perkin Elmer) at 665 nm and […]. The ratio of fluorescence at 665 nm to 620 nm was used as a readout for IL-6 quantification. All samples were processed in duplicate. Readings were normalized to DMSO treated cells and normalized activities were utilized for EC50 calculations using the dose-response log (inhibitor) vs. response -variable slope (four parameters) nonlinear regression feature available in GraphPad Prism 5.0 (or Dotmatics). For EC50 of >10 μM, the percent inhibition at 10 μM is provided.

The test system of the next assay is Interleukin 6 (IL-6). The assay is described as follows: Inhibition of IL-6 secretion in IL-1β-stimulated synovial fibroblasts (SW982), ELISA. As to conditions: human synovial fibroblasts stimulated with IL-1β, treated 24 hrs, FIG. 14A. Here is the method:
Synovial fibroblasts (SW982 cells; ATCC) were cultured in Leibovitz's L-15 Medium (ATCC) with 10% FBS at 37° C. and 0% CO2. 24 hours before the start of the assay, media was changed to Leibovitz's L-15 Medium with […]. Compound 10 was dissolved in DMSO as a 10 mM stock and used to prepare compound source plates. A serial dilution (8-point dose-response) and compound transfer was performed using the ECHO 550 (Labcyte, Sunnyvale, Calif.) into 96-well clear bottom assay plates (Greiner Bio-One) with appropriate DMSO backfill for a final DMSO concentration of 0.05%. […] Plates were spun in a centrifuge for 1 minute at 10,000 rpm and supernatants were collected for ELISA.
Supernatants were diluted 1:1 for the TNFα assay and 1:4 for the IL6 assay using the assay medium. ELISA was performed using Human TNF-α ELISA MAX™ Deluxe (Catalog #430204, Biolegend, San Diego, Calif.) and Human IL-6 ELISA MAX™ Deluxe (Catalog #430504, Biolegend, San Diego, Calif.) kits. […] Following several washes to remove unbound avidin-HRP, the TMB substrate was added and the plates were read on the Cytation 3 plate reader (Biotek Inc., Winooski, Vt.) at an absorbance of 450 nm with correction at 570 nm. […] Inhibition profile and EC50 was calculated using Prism 5 (GraphPad Software Inc, La Jolla, Calif., USA).
(An ELISA detects its analyte on a solid surface through an enzyme-linked reagent.)

In a further assay the test system is Interleukin 1β (IL1β). Briefly: Inhibition of inflammatory cytokine expression in IL-1β-stimulated synovial fibroblasts, qRT-PCR. The note with it: human synovial fibroblasts, IL-1β (100 ng/mL), Compound 10 at 100 nM and 30 nM, 24 hrs; FIG. 14B. Here is the method: Synovial fibroblasts were plated in 6-well plates at 0.5 million cells per well in Leibovitz's L-15 Medium with 1% FBS. Compound 10 dissolved in DMSO was added to the wells at different concentrations. […] Cells were harvested by trypsinization, pelleted, washed with PBS and Total RNA was isolated using RNeasy Mini Kit (Qiagen). cDNA was synthesized using the QuantiTect Reverse Transcription kit (Qiagen). qRT-PCR was performed with QuantiTect SYBR Green PCR Kit (Qiagen) and gene-specific primers, using CFX384 (Biorad). Transcripts were quantitated by comparative Ct method and normalized to endogenous controls, β-actin and GAPDH.
(In general: Quantitative PCR measures a nucleic acid by following its amplification.)

The structures appear in SMILES notation. pEC50: −log10 of the molar value.

On to `CC(C)CC(=O)Nc1cncc(-c2ccc3[nH]nc(-c4nc5c(-c6cccc(F)c6)cncc5[nH]4)c3c2)c1` [Compound 10], for which the negative logarithm of the EC50 (pEC50) in the assay with IL-6 is 7.89. In addition, the “inhibition of IL-6 secretion” value with Interleukin 6 (IL-6) is listed as “inhibition”. Also, the “inhibition of inflammatory cytokine secretion (qRT-PCR)” value in the assay with Interleukin 1β (IL1β) was “inhibition”.

For orientation: pEC50 means the EC50 on a negative log10 scale, so that one unit is a factor of ten. A high value points to a small EC50.
